Test results published in US20220395472A1 (Dermavant Sciences GmbH, priority 2021, published 2022).

System: adults with plaque psoriasis
Experiment: Long-term open-label extension study (PSOARING 3): Physician Global Assessment (PGA), treatment episodes, treatment success, remittive effect
Assay type: in vivo, human
Method: This extension study consisted of up to 40 weeks of treatment and a 4 week, safety follow up period.
At the completion of the Week 12 visit of the DB, pivotal Phase 3 study, eligibility of the subjects opting to enroll in this extension study was confirmed. Study visits during the treatment period for all subjects occurred every 4 weeks (±3 days). A phone call was performed at Week 2 (Day 15). Unscheduled visits may have occurred, as needed. Subjects who withdrew from this study before Week 40 returned to the study center for an Early Termination visit. The total duration of this extension study participation was 44 weeks. Subjects in this study were treated as follows based on their PGA score from the Week 12 visit in the DB, pivotal Phase 3 study (Study DMVT 505 3001 or Study DMVT 505 3002).
The PGA was used to assess the primary efficacy endpoint in this study. The PGA is a clinical tool for assessing the current state/severity of a subject's psoriasis at a given time point. It is a static, 5 point, morphological assessment of overall disease severity, as determined by the Investigator, using the clinical characteristics of erythema, scaling, and plaque thickness/elevation as guidelines; higher PGA scores represent more severe disease (0=clear, 1=almost clear, 2=mild, 3=moderate, and 4=severe). The BSA affected was not considered in scoring of the PGA. Variations of the PGA are frequently used in clinical studies because it is a simple assessment, similar to those used in clinical practice. The PGA was performed first, prior to the % BSA, PASI, and LTS assessments.
Time to event parameters, such as the time from treatment success to subsequent worsening (PGA≥2) or duration of treatment episode, were summarized by the Kaplan Meier product limit method using OC.

[1] = Baseline PGA = 0, Tapinarof (Pivotal) group
[2] = Baseline PGA = 0, Vehicle (Pivotal) group

CC(C)c1c(O)cc(/C=C/c2ccccc2)cc1O [Tapinarof, 3,5-Dihydroxy-4-isopropyl-trans-stilbene]
Average Duration of Episodes, Mean (SD) (Baseline PGA = 0, Overall): 91.4 (66.93) days | Average Duration of Episodes, Median (Baseline PGA = 0, Overall): 63.0 days | Average Duration of Treatment Success, Mean (SD) (Baseline PGA = 0, Overall): 124.2 (87.66) days | Average Duration of Treatment Success, Median (Baseline PGA = 0, Overall): 98.0 days | Duration of 1st Episode, Mean (SD) (Baseline PGA = 0, Overall): 92.9 (67.74) days | Duration of 1st Episode, Median (Baseline PGA = 0, Overall): 65.0 days | Duration of 1st Success, Mean (SD) (Baseline PGA = 0, Overall): 125.1 (91.87) days | Duration of 1st Success, Median (Baseline PGA = 0, Overall): 112.0 days | Duration of 2nd Episode, Mean (SD) (Baseline PGA = 0, Overall): 44.1 (25.97) days | Duration of 2nd Episode, Median (Baseline PGA = 0, Overall): 42.0 days | Duration of 2nd Success, Mean (SD) (Baseline PGA = 0, Overall): 87.6 (67.05) days | Duration of 2nd Success, Median (Baseline PGA = 0, Overall): 71.0 days | Duration of 3rd Episode, Mean (SD) (Baseline PGA = 0, Overall): 61.0 (NE) days | Duration of 3rd Episode, Median (Baseline PGA = 0, Overall): 61.0 days | Duration of 3rd Success, Mean (SD) (Baseline PGA = 0, Overall): 33.0 (29.76) days | Duration of 3rd Success, Median (Baseline PGA = 0, Overall): 28.0 days | Duration of Last Episode, Mean (SD) (Baseline PGA = 0, Overall): 89.9 (68.95) days | Duration of Last Episode, Median (Baseline PGA = 0, Overall): 63.0 days | Duration of Last Success, Mean (SD) (Baseline PGA = 0, Overall): 121.6 (98.44) days | Duration of Last Success, Median (Baseline PGA = 0, Overall): 112.0 days | Total Duration of Treatment Episodes, Mean (SD) (Baseline PGA = 0, Overall): 109.2 (61.94) days | Total Duration of Treatment Episodes, Median (Baseline PGA = 0, Overall): 94.0 days | Total Duration of Treatment Success, Mean (SD) (Baseline PGA = 0, Overall): 167.9 (84.48) days | Total Duration of Treatment Success, Median (Baseline PGA = 0, Overall): 170.0 days | Average Duration of Episodes, Mean (SD) [1]: 90.2 (65.67) days | Average Duration of Episodes, Median [1]: 63.0 days | Average Duration of Treatment Success, Mean (SD) [1]: 119.7 (82.74) days | Average Duration of Treatment Success, Median [1]: 98.0 days | Duration of 1st Episode, Mean (SD) [1]: 91.7 (66.66) days | Duration of 1st Episode, Median [1]: 65.0 days | Duration of 1st Success, Mean (SD) [1]: 120.3 (87.83) days | Duration of 1st Success, Median [1]: 112.0 days | Duration of 2nd Episode, Mean (SD) [1]: 44.9 (26.43) days | Duration of 2nd Episode, Median [1]: 43.0 days | Duration of 2nd Success, Mean (SD) [1]: 89.1 (67.03) days | Duration of 2nd Success, Median [1]: 71.0 days | Duration of 3rd Episode, Mean (SD) [1]: 61.0 (NE) days | Duration of 3rd Episode, Median [1]: 61.0 days | Duration of 3rd Success, Mean (SD) [1]: 36.2 (29.31) days | Duration of 3rd Success, Median [1]: 28.5 days | Duration of Last Episode, Mean (SD) [1]: 88.8 (67.68) days | Duration of Last Episode, Median [1]: 63.0 days | Duration of Last Success, Mean (SD) [1]: 118.0 (93.58) days | Duration of Last Success, Median [1]: 112.0 days | Total Duration of Treatment Episodes, Median [1]: 94.0 days | Total Duration of Treatment Success, Mean (SD) [1]: 164.3 (82.24) days | Total Duration of Treatment Success, Median [1]: 168.0 days | Average Duration of Episodes, Mean (SD) [2]: 122.8 (124.80) days | Average Duration of Episodes, Median [2]: 122.8 days | Average Duration of Treatment Success, Mean (SD) [2]: 191.0 (136.91) days | Average Duration of Treatment Success, Median [2]: 280.0 days | Duration of 1st Episode, Mean (SD) [2]: 126.0 (120.21) days | Duration of 1st Episode, Median [2]: 126.0 days | Duration of 1st Success, Mean (SD) [2]: 195.2 (130.61) days | Duration of 1st Success, Median [2]: 280.0 days | Duration of 2nd Episode, Mean (SD) [2]: 28.0 (NE) days | Duration of 2nd Episode, Median [2]: 28.0 days | Duration of 2nd Success, Mean (SD) [2]: 63.5 (88.39) days | Duration of 2nd Success, Median [2]: 63.5 days | Duration of 3rd Success, Mean (SD) [2]: 1.0 (NE) days | Duration of 3rd Success, Median [2]: 1.0 days | Duration of Last Episode, Mean (SD) [2]: 119.5 (129.40) days | Duration of Last Episode, Median [2]: 119.5 days | Duration of Last Success, Mean (SD) [2]: 174.4 (158.72) days | Duration of Last Success, Median [2]: 280.0 days | Total Duration of Treatment Episodes, Mean (SD) [2]: 140.0 (100.41) days | Total Duration of Treatment Episodes, Median [2]: 140.0 days | Total Duration of Treatment Success, Mean (SD) [2]: 220.8 (109.21) days | Total Duration of Treatment Success, Median [2]: 280.0 days | Average Duration of Episodes, Mean (SD) (Baseline PGA = 1, Overall): 140.1 (95.01) days | Average Duration of Episodes, Median (Baseline PGA = 1, Overall): 112.0 days | Average Duration of Treatment Success, Median (Baseline PGA = 1, Overall): 98.0 days | Duration of 1st Episode, Mean (SD) (Baseline PGA = 1, Overall): 133.5 (100.06) days | Duration of 1st Episode, Median (Baseline PGA = 1, Overall): 87.0 days | Duration of 1st Success, Mean (SD) (Baseline PGA = 1, Overall): 107.2 (76.62) days | Duration of 1st Success, Median (Baseline PGA = 1, Overall): 90.0 days | Duration of 2nd Episode, Mean (SD) (Baseline PGA = 1, Overall): 98.4 (61.51) days | Duration of 2nd Episode, Median (Baseline PGA = 1, Overall): 85.0 days | Duration of 2nd Success, Mean (SD) (Baseline PGA = 1, Overall): 75.4 (59.40) days | Duration of 2nd Success, Median (Baseline PGA = 1, Overall): 56.0 days | Duration of 3rd Episode, Mean (SD) (Baseline PGA = 1, Overall): 54.9 (56.83) days | Duration of 3rd Episode, Median (Baseline PGA = 1, Overall): 28.0 days
